Patent US20230026163A1, “ANTICANCER COMPOUND AND MEDICAL USE THEREOF” (ASCENTAWITS PHARMACEUTICALS, LTD., priority 2019, published 2023)

What was measured:
[1] = target: P-glycoprotein (Homo sapiens, UniProt P08183); assay: in vitro
[2] = system: GA6201 tumor of HuPrime® model; assay: PDX model, subcutaneously transplanted human gastric cancer; assay type: in vivo, BALB/c nude mice; conditions: for Tumor volume: ifosfamide 60 mg/kg i.p., compound 01 5-50 mg/kg
Method: BALB/c nude mice were subcutaneously inoculated with GA6201 tumor of HuPrime® model to establish a subcutaneously transplanted tumor model of human gastric cancer. The experiment was divided into a vehicle control group 1 with normal saline (pH 7.0-7.6), a control group 2 with ifosfamide (60 mg/kg), and an Experimental group (Exp. group) with compound 01 (5-50 mg/kg), and 5 mice per group.
The Exp. group with compound 01 (5-50 mg/kg) was administered by intraperitoneal injection for 5 consecutive days and stopped for 2 days a week, and administered for 2 weeks. Then, the dose was changed to 10 mg/kg by intraperitoneal injection, administered daily for 4 days. After that, the dose and administration method were changed. The dose was 20 mg/kg by tail vein injection for 1 day. After 10 days of drug withdrawal, the dose was changed again. The dose was 50 mg/kg by tail vein injection, once a week, for 2 weeks, and one week of observation. […] The safety was evaluated according to the changes in animal body weight and death.
The tumor volume of each group of mice was measured on different days, and the average value was obtained.

[3] = system: NCI-H460 cells; assay: CDX model, subcutaneously transplanted human lung cancer; assay type: in vivo, BALB/c nude mice; conditions: for Relative tumor inhibition rate TGI (%): 31st day after inoculation
Method: BALB/c nude mice were subcutaneously inoculated with human lung cancer cells, NCI-H460 cells, to establish a subcutaneously transplanted tumor model of human lung cancer. The experiment was divided into a 20 mg/kg of the test drug compound 01 group, a 40 mg/kg of the test drug compound 01 group, and a vehicle control group with 10% of ethanol+10% of polyoxyethylene (35) castor oil, Cremophor EL+80% of 5% of glucose injection (pH7.4), and 6 mice in each group. […] The 40 mg/kg of the test drug compound 01 group was administered by tail vein injection, once every three weeks, for a total of 2 administrations, and observed for a week after the second administration. The 20 mg/kg of the test drug compound 01 group was administered by intraperitoneal injection once a day for 5 consecutive days and observed for 24 days. The efficacy was evaluated based on the relative tumor inhibition rate TGI (%). The safety evaluation was performed based on changes in animal body weight and mortality. The administered doses of compound 01 were determined based on the MTD experiment.
The tumor volume of each group of mice was measured on different days respectively, and the average value was obtained.

P-glycoprotein, sequence (P08183 whole entry): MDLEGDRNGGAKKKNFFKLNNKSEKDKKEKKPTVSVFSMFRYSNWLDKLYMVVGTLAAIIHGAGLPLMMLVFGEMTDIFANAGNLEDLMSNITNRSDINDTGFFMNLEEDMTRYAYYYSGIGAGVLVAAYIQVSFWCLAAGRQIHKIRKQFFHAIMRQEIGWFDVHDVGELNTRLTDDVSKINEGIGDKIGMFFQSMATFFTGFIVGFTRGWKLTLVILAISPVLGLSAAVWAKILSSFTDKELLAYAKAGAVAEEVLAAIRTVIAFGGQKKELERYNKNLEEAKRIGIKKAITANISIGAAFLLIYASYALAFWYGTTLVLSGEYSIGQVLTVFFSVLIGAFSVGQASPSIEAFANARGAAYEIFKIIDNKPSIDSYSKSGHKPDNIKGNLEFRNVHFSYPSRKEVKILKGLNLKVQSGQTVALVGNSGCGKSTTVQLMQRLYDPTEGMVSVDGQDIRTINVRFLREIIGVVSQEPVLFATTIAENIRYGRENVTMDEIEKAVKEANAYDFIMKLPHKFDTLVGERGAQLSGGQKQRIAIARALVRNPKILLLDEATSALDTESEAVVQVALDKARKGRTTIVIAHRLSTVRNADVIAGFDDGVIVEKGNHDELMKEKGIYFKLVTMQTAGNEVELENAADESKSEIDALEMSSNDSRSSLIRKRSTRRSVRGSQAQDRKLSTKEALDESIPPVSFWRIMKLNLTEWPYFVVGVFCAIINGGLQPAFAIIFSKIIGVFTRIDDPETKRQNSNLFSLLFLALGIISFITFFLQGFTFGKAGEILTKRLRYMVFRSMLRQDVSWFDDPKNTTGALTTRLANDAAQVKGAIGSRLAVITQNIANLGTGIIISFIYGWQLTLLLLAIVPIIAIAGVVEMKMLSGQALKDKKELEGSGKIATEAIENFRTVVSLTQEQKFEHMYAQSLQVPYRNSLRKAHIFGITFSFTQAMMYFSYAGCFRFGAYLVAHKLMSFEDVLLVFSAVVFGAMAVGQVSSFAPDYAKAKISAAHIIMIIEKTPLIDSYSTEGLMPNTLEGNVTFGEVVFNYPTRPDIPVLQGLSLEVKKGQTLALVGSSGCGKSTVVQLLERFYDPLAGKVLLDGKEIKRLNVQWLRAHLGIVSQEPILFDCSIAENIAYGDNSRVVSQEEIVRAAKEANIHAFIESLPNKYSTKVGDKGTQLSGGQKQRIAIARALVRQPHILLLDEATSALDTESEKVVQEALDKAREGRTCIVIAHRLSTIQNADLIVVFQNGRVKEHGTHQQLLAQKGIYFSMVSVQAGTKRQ

**Q.** How did the Papp A→B at 2 h ([1]; dog, MDCK-MDR1) turn out when `O=[N+]([O-])c1ccc(C(OP(=O)(N2CC2)N2CC2)C(F)(F)F)c2ccccc12` (stereo not shown) [Compound 01] was run?
**A.** 186 nm/s

**Q.** And the Papp B→A at 2 h ([1]; dog, MDCK-MDR1)?
**A.** 120 nm/s

**Q.** And the recovery at 2 h ([1]; dog, MDCK-MDR1, Recovery (%) AP-BL, Verapamil 0 μM)?
**A.** 58.6%

**Q.** And the recovery at 2 h ([1]; dog, MDCK-MDR1, Recovery (%) AP-BL, Verapamil 100 μM)?
**A.** 63.4%

**Q.** What about the recovery at 2 h ([1]; dog, MDCK-MDR1, Recovery (%) BL-AP, Verapamil 0 μM) of the same molecule?
**A.** 58.6%

**Q.** What about the recovery at 2 h ([1]; dog, MDCK-MDR1, Recovery (%) BL-AP, Verapamil 100 μM) of the same molecule?
**A.** 67.3%

**Q.** What about the “P-glycoprotein substrate (experimental conclusion)” value ([1]; with vs without Verapamil) of the same molecule?
**A.** not P-glycoprotein substrates

**Q.** And the “Inhibition of tumor growth compared with ifosfamide (conclusion)” value ([2]; GA6201 PDX)?
**A.** obvious advantages in inhibiting tumor growth

**Q.** What about the Tumor volume ([2]; day 0) of the same molecule?
**A.** 94.24 mm^3

**Q.** And the Tumor volume ([2]; day 3)?
**A.** 121.79 mm^3

**Q.** What about the Tumor volume ([2]; day 7) of the same molecule?
**A.** 123.19 mm^3

**Q.** And the Tumor volume ([2]; day 10)?
**A.** 153.46 mm^3

**Q.** What about the Tumor volume ([2]; day 14) of the same molecule?
**A.** 191.17 mm^3

**Q.** What about the Tumor volume ([2]; day 17) of the same molecule?
**A.** 219.91 mm^3

**Q.** What about the Tumor volume ([2]; day 21) of the same molecule?
**A.** 246.57 mm^3

**Q.** And the Tumor volume ([2]; day 24)?
**A.** 271.72 mm^3

**Q.** And the Tumor volume ([2]; day 28)?
**A.** 280.86 mm^3

**Q.** What about the Tumor volume ([2]; day 31) of the same molecule?
**A.** 270.68 mm^3

**Q.** What about the Tumor volume ([2]; day 35) of the same molecule?
**A.** 299.31 mm^3

**Q.** And the Tumor volume ([2]; day 38)?
**A.** 277.17 mm^3

**Q.** What about the Tumor volume ([2]; day 42) of the same molecule?
**A.** 300.46 mm^3

**Q.** And the Tumor volume ([2]; day 45)?
**A.** 342.08 mm^3

**Q.** What about the Tumor volume ([2]; day 49) of the same molecule?
**A.** 287.47 mm^3

**Q.** And the “Relative tumor inhibition rate TGI (%)” value ([3]; 20 mg/kg, QD×5×1 week, IP, Exp. group 8)?
**A.** 76.22%

**Q.** And the “Relative tumor inhibition rate TGI (%)” value ([3]; 40 mg/kg, Q3W×2, IV, Exp. group 7)?
**A.** 66.87%

**Q.** What about the Tumor volume ([3]; day 7, Exp. group 7, 40 mg/kg, Q3W×2, IV) of the same molecule?
**A.** 143.84 mm^3

**Q.** And the Tumor volume ([3]; day 7, Exp. group 8, 20 mg/kg, QD×5×1 week, IP)?
**A.** 144.63 mm^3

**Q.** And the Tumor volume ([3]; day 10, Exp. group 7, 40 mg/kg, Q3W×2, IV)?
**A.** 184.06 mm^3

**Q.** What about the Tumor volume ([3]; day 10, Exp. group 8, 20 mg/kg, QD×5×1 week, IP) of the same molecule?
**A.** 173.09 mm^3

**Q.** What about the Tumor volume ([3]; day 14, Exp. group 7, 40 mg/kg, Q3W×2, IV) of the same molecule?
**A.** 153.75 mm^3

**Q.** And the Tumor volume ([3]; day 14, Exp. group 8, 20 mg/kg, QD×5×1 week, IP)?
**A.** 152.99 mm^3

**Q.** What about the Tumor volume ([3]; day 17, Exp. group 7, 40 mg/kg, Q3W×2, IV) of the same molecule?
**A.** 159.72 mm^3

**Q.** What about the Tumor volume ([3]; day 17, Exp. group 8, 20 mg/kg, QD×5×1 week, IP) of the same molecule?
**A.** 130.06 mm^3

**Q.** What about the Tumor volume ([3]; day 21, Exp. group 7, 40 mg/kg, Q3W×2, IV) of the same molecule?
**A.** 218.13 mm^3

**Q.** What about the Tumor volume ([3]; day 21, Exp. group 8, 20 mg/kg, QD×5×1 week, IP) of the same molecule?
**A.** 129.66 mm^3

**Q.** And the Tumor volume ([3]; day 24, Exp. group 7, 40 mg/kg, Q3W×2, IV)?
**A.** 291.07 mm^3

**Q.** What about the Tumor volume ([3]; day 24, Exp. group 8, 20 mg/kg, QD×5×1 week, IP) of the same molecule?
**A.** 164.63 mm^3

**Q.** And the Tumor volume ([3]; day 28, Exp. group 7, 40 mg/kg, Q3W×2, IV)?
**A.** 520.17 mm^3

**Q.** And the Tumor volume ([3]; day 28, Exp. group 8, 20 mg/kg, QD×5×1 week, IP)?
**A.** 272.20 mm^3

**Q.** And the Tumor volume ([3]; day 31, Exp. group 7, 40 mg/kg, Q3W×2, IV)?
**A.** 580.70 mm^3

**Q.** And the Tumor volume ([3]; day 31, Exp. group 8, 20 mg/kg, QD×5×1 week, IP)?
**A.** 447.50 mm^3

**Q.** And the Tumor volume ([3]; day 35, Exp. group 7, 40 mg/kg, Q3W×2, IV)?
**A.** 447.32 mm^3

**Q.** And the Tumor volume ([3]; day 35, Exp. group 8, 20 mg/kg, QD×5×1 week, IP)?
**A.** 651.58 mm^3
